Measurements reported in patent US11046699B2, “Pyrazolo-pyrimidin-amino-cycloalkyl compounds and their therapeutic uses” (RAPT THERAPEUTICS, INC., priority 2018, dated 2021).
pIC50: −log10 of the molar value.

Target: GCN2 (Homo sapiens, UniProt Q9P2K8)
Experiment: GCN2 enzymatic endpoint assay: phosphorylation of GFP-eIF2α measured by TR-FRET (Lanthascreen)
Format: biochemical
Conditions: tested as described in Example 77; compound and/or hydrochloride, dihydrochloride or trifluoroacetic acid salt; read-out: IC 50 Activity
Experimental: The Enzymatic assay was run as an endpoint assay to quantify the activity of the serine/threonine GCN2 kinase by way of measuring phosphorylation of its natural substrate, eiF2α.
The enzymatic reaction was initiated by incubating with 2 μM ATP and 80 nM of GFP labeled eiF2a substrate at room temperature and then stopped after 90 minutes with EDTA. The amount of phosphorylated eIF2α is determined by TR-FRET (Lanthascreen). A terbium labeled antibody associates with the phosphorylated substrate resulting in an increased TR-FRET value. Activity was calculated as the ratio of the acceptor (fluorescein) signal at 520 nm wavelength to the donor (terbium) signal 495 nm. The amount of antibody that is bound to the tracer is directly proportional to the amount of phosphorylated substrate present, and in this manner, kinase activity can be detected and measured by an increase in the TR-FRET value.
Compound addition by D300
5 μL enzyme solution in assay buffer
5 μL substrate/ATP mixture in assay buffer
5 μL stop/detection mix in antibody dilution buffer

Chain of GCN2 (Q9P2K8 whole entry): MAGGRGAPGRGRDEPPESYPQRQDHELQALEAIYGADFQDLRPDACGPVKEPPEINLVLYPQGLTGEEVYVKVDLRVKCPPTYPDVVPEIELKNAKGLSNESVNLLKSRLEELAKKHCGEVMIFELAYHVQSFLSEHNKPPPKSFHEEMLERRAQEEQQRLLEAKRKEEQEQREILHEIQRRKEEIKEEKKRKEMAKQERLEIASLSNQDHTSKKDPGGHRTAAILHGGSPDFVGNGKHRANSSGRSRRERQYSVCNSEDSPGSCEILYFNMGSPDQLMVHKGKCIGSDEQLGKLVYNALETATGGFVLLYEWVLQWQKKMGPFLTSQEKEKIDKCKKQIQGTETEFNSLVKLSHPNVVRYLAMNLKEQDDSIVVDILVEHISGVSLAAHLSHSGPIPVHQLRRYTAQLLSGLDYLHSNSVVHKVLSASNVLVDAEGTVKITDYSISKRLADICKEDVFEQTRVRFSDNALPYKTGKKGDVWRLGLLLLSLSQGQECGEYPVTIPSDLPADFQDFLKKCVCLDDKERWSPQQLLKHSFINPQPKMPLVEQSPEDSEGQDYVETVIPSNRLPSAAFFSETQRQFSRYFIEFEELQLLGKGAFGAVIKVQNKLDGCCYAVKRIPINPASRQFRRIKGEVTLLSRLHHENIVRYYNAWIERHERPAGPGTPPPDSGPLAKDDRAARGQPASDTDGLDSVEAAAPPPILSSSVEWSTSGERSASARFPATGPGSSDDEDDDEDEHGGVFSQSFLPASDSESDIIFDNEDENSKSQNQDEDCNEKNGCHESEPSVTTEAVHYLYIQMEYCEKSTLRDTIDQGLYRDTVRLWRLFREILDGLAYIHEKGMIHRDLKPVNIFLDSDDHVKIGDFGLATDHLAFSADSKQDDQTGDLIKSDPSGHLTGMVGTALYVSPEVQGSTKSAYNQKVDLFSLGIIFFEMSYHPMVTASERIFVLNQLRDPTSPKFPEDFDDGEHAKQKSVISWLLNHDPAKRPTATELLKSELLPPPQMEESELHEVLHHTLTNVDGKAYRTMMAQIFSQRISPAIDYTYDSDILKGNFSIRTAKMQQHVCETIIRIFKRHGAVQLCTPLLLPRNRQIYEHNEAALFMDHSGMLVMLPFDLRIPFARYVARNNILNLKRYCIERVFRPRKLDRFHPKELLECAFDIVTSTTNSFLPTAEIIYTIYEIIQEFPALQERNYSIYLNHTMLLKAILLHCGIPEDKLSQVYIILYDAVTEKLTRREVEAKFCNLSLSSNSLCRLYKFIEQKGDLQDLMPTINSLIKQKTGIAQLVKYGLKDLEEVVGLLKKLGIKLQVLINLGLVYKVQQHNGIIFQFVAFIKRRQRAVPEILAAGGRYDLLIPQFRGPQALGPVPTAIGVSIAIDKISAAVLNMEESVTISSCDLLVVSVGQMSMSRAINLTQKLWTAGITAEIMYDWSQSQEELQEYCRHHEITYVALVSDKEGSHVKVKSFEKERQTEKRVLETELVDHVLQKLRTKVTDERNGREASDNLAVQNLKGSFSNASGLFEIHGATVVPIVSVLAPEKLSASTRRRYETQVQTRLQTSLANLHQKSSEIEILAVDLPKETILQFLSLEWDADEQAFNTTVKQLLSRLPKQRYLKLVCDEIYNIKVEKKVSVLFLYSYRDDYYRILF

| Structure (SMILES) | pIC50 |
| --- | --- |
| CNC(=O)[C@]1(CCC(F)(F)F)CC[C@@H](Nc2ncc3c(Br)nn(-c4cc(F)c5ncccc5c4)c3n2)C1 [(1S,3R)-3-[[3-bromo-1-(8-fluoro-6-quinolyl)pyrazolo[3,4-d]pyrimidin-6-yl]amino]-N-methyl-1-(3,3,3-trifluoropropyl)cyclopentane-carboxamide] | 6.70 to 7.60 |
| O=C1OCC[C@]12CC[C@@H](Nc1ncc3c(Br)nn(-c4cc(F)c5ncccc5c4)c3n1)C2 [(5R,7R)-7-((3-bromo-1-(8-fluoroquinolin-6-yl)-1H-pyrazolo[3,4-d]pyrimidin-6-yl)amino)-2-oxaspiro[4.4]nonan-1-one] | > 7.60 |
| CNC(=O)CCC1(C#N)CC[C@@H](Nc2ncc3c(Br)nn(-c4ccc(-c5nnc(C)s5)cc4)c3n2)C1 (some centres unmarked) | > 7.60 |
| CNC(=O)[C@]1(C)CC[C@@H](Nc2ncc3c(Br)nn(-c4ccc5nc[nH]c(=O)c5c4)c3n2)C1 | 6.70 to 7.60 |
| CNC(=O)[C@]1(C)CC[C@@H](Nc2ncc3c(Br)nn(-c4ccc(-c5ncco5)c(NC(=O)C5CCNCC5)c4)c3n2)C1 [N-[5-[3-bromo-6-[[(1R,3R)-3-methyl-3-(methylcarbamoyl)cyclopentyl]amino]pyrazolo[3,4-d]pyrimidin-1-yl]-2-oxazol-2-yl-phenyl]piperidine-4-carboxamide] | > 7.60 |
| CNC(=O)[C@]1(C)CC[C@@H](Nc2ncc3c(Br)nn(-c4cc(Br)cc(CN)c4)c3n2)C1 | 6.70 to 7.60 |
| CNC(=O)[C@]1(C)CCC(Nc2ncc3c(Br)nn(-c4ccc5c(c4)NC(=O)CC5)c3n2)C1 (stereo partly drawn) [(1R)-3-[[3-bromo-1-(2-oxo-3,4-dihydro-1H-quinolin-7-yl)pyrazolo[3,4-d]pyrimidin-6-yl]amino]-N,1-dimethyl-cyclopentane-carboxamide] | 6.70 to 7.60 |
| CNC(=O)[C@]1(C)CC[C@@H](Nc2ncc3c(Br)nn(-c4ccc5c(c4)OCC(=O)N5CC(F)(F)F)c3n2)C1 [(1R,3R)-3-[[3-bromo-1-[3-oxo-4-(2,2,2-trifluoroethyl)-1,4-benzoxazin-7-yl]pyrazolo [3,4-d]pyrimidin-6-yl]amino]-N,1-dimethyl-cyclopentanecarboxamide] | 6.70 to 7.60 |
| CNC(=O)[C@]1(C)CC[C@@H](Nc2ncc3c(Br)nn(-c4ccc(C#N)c(OCCO)c4)c3n2)C1 [(1R,3R)-3-[[3-bromo-1-[4-cyano-3-(2-hydroxyethoxy)phenyl]pyrazolo[3,4-d]pyrimidin-6-yl]amino]-N,1-dimethyl-cyclopentanecarboxamide] | 6.70 to 7.60 |
| C[C@@H]1CN(C(=O)C2(C)CC[C@@H](Nc3ncc4c(Br)nn(-c5cc(F)c6ncccc6c5)c4n3)C2)C[C@@H](C)O1 (stereo partly drawn) [[(3R)-3-[[3-bromo-1-(8-fluoro-6-quinolyl)pyrazolo[3,4-d]pyrimidin-6-yl]amino]-1-methyl-cyclopentyl]-[(2R,6R)-2,6-dimethylmorpholin-4-yl]methanone] | 6.70 to 7.60 |
| CNC(=O)C1(C)CC[C@@H](Nc2ncc3c(Br)nn(-c4cc(OC(F)(F)F)cc(C(C)O)c4)c3n2)C1 (stereo partly drawn) [(3R)-3-[[3-bromo-1-[3-(1-hydroxyethyl)-5-(trifluoromethoxy)phenyl]pyrazolo [3,4-d]pyrimidin-6-yl]amino]-N,1-dimethyl-cyclopentanecarboxamide] | 6.70 to 7.60 |
| CNC(=O)[C@]1(C)CC[C@@H](Nc2ncc3c(Br)nn(-c4ccc(C#N)c(CO)c4)c3n2)C1 [(1R,3R)-3-[[3-bromo-1-[4-cyano-3-(hydroxymethyl)phenyl]pyrazolo[3,4-d]pyrimidin-6-yl]amino]-N,1-dimethyl-cyclopentanecarboxamide] | 6.70 to 7.60 |
| CN(C)C(=O)[C@@H]1CC[C@@H](Nc2ncc3c(Br)nn(-c4cc(F)c5ncccc5c4)c3n2)C1 [(1R,3R)-3-((3-bromo-1-(8-fluoroquinolin-6-yl)-1H-pyrazolo[3,4-d]pyrimidin-6-yl)amino)-N,N-dimethylcyclopentane-1-carboxamide] | 6.70 to 7.60 |
| CCN1CN(C(=O)[C@@H]2CC[C@@H](Nc3ncc4c(Br)nn(-c5cc(F)c6ncccc6c5)c4n3)C2)CC1=O [1-((1R,3R)-3-((3-bromo-1-(8-fluoroquinolin-6-yl)-1H-pyrazolo[3,4-d]pyrimidin-6-yl)amino)cyclopentane-1-carbonyl)-3-ethyl-imidazolidin-4-one] | 6.70 to 7.60 |
| CCN1C(=O)COc2cc(-n3nc(Br)c4cnc(N[C@@H]5CC[C@@](C)(C(=O)NC)C5)nc43)ccc21 [(1R,3R)-3-[[3-bromo-1-(4-ethyl-3-oxo-1,4-benzoxazin-7-yl)pyrazolo[3,4-d]pyrimidin-6-yl]amino]-N,1-dimethyl-cyclopentane-carboxamide] | 6.70 to 7.60 |
| CNC(=O)[C@]1(C)CC[C@@H](Nc2ncc3c(Br)nn(-c4ccc5ncc(NC(=O)CCN)cc5c4)c3n2)C1 [(1R,3R)-3-[[1-[3-(3-aminopropanoylamino)-6-quinolyl]-3-bromo-pyrazolo[3,4-d]pyrimidin-6-yl]amino]-N,1-dimethyl-cyclopentanecarboxamide] | > 7.60 |

| Structure (SMILES) | pIC50 |
| --- | --- |
| N#Cc1cc(-n2nc(Br)c3cnc(N[C@@H]4CC[C@@H](C(=O)N5CCN(C(=O)CO)CC5)C4)nc32)cc2cccnc12 [6-(3-bromo-6-(((1R,3R)-3-(4-(2-hydroxyacetyl)piperazine-1-carbonyl)cyclopentyl)amino)-1H-pyrazolo[3,4-d]pyrimidin-1-yl)quinoline-8-carbonitrile] | 6.70 to 7.60 |
| C[C@@]1(CO)CC[C@@H](Nc2ncc3c(Br)nn(-c4cc(CCN)c5ncccc5c4)c3n2)C1 | 6.70 to 7.60 |
| CC(C)NC(=O)CN(C)C(=O)[C@@H]1CC[C@@H](Nc2ncc3c(Br)nn(-c4ccc5ncccc5c4)c3n2)C1 [(1R,3R)-3-((3-bromo-1-(quinolin-6-yl)-1H-pyrazolo[3,4-d]pyrimidin-6-yl)amino)-N-(2-(isopropylamino)-2-oxoethyl)-N-methylcyclo-pentane-1-carboxamide] | 6.70 to 7.60 |
| CNC(=O)[C@]1(C)CCC(Nc2ncc3c(Br)nn(-c4ccc(C(N)=O)c(Cl)c4)c3n2)C1 (stereo partly drawn) [4-[3-bromo-6-[[(3R)-3-methyl-3-(methylcarbamoyl)cyclopentyl]amino]pyrazolo[3,4-d]pyrimidin-1-yl]-2-chloro-benzamide] | 6.70 to 7.60 |
| CNC(=O)C1(C)CC[C@@H](Nc2ncc3c(Br)nn(-c4ccc5cnc(OC)cc5c4)c3n2)C1 (stereo partly drawn) [(3R)-3-[[3-bromo-1-(3-methoxy-6-isoquinolyl)pyrazolo[3,4-d]pyrimidin-6-yl]amino]-N,1-dimethyl-cyclopentane-carboxamide] | 6.70 to 7.60 |
| CNC(=O)[C@]1(C)CC[C@@H](Nc2ncc3c(Br)nn(-c4cc(C#N)cc(CC#N)c4)c3n2)C1 | 6.70 to 7.60 |
| Cc1nnc(-c2ccc(-n3nc(Br)c4cnc(N[C@@H]5CC[C@@H](NC(=O)C6CNC6)C5)nc43)cc2)s1 | 6.70 to 7.60 |
| Cc1nnc(-c2ccc(-n3nc(Br)c4cnc(N[C@@H]5CCC(CN6CCOCC6)(C(=O)O)C5)nc43)cc2)s1 (some centres unmarked) | 6.70 to 7.60 |
| CNC(=O)[C@]1(C)CC[C@@H](Nc2ncc3c(Br)nn(-c4ccc5ncc(NC(=O)CCOC)cc5c4)c3n2)C1 [(1R,3R)-3-[[3-bromo-1-[3-(3-methoxy-propanoylamino)-6-quinolyl]pyrazolo[3,4-d]pyrimidin-6-yl]amino]-N,1-dimethyl-cyclopentanecarboxamide] | 6.70 to 7.60 |
| CNC(=O)C1(C)CC[C@@H](Nc2ncc3c(Br)nn(-c4cc(C)cc(CO)c4)c3n2)C1 (stereo partly drawn) [(3R)-3-[[3-bromo-1-[3-(hydroxymethyl)-5-methyl-phenyl]pyrazolo[3,4-d]pyrimidin-6-yl]amino]-N,1-dimethyl-cyclopentanecarboxamide] | 6.70 to 7.60 |
| O=C([C@@H]1CC[C@@H](Nc2ncc3c(Br)nn(-c4ccc5ncccc5c4)c3n2)C1)N1CC2CCC(C1)O2 [(8-oxa-3-azabicyclo[3.2.1]octan-3-yl)((1R,3R)-3-((3-bromo-1-(quinolin-6-yl)-1H-pyrazolo [3,4-d]pyrimidin-6-yl)amino)cyclopentyl) methanone] | 6.70 to 7.60 |
| O=C([C@@H]1CC[C@@H](Nc2ncc3c(Br)nn(-c4cc(F)c5ncccc5c4)c3n2)C1)N1CCS(=O)(=O)CC1 [((1R,3R)-3-((3-bromo-1-(8-fluoroquinolin-6-yl)-1H-pyrazolo[3,4-d]pyrimidin-6-yl)amino)cyclopentyl)(1,1-dioxidothio-morpholino)methanone] | 6.70 to 7.60 |
| Cc1nnc(-c2ccc(-n3nc(Br)c4cnc(NC5CCN(CC(F)F)C5)nc43)cc2)s1 (centres unmarked) [3-bromo-N-[1-(2,2-difluoroethyl)pyrrolidin-3-yl]-1-[4-(5-methyl-1,3,4-thiadiazol-2-yl)phenyl] pyrazolo[3,4-d]pyrimidin-6-amine] | 6.70 to 7.60 |
| CNC(=O)[C@]1(C)CC[C@@H](Nc2ncc3c(Br)nn(-c4cc(C5CNCCO5)c5ncccc5c4)c3n2)C1 (stereo partly drawn) [(1R,3R)-3-[[3-bromo-1-(8-morpholin-2-yl-6-quinolyl)pyrazolo[3,4-d]pyrimidin-6-yl]amino]-N,1-dimethyl-cyclopentane-carboxamide] | 6.70 to 7.60 |
| O=C(N[C@@H]1CCNC[C@H]1F)[C@@H]1CC[C@@H](Nc2ncc3c(Br)nn(-c4cc(F)c5ncccc5c4)c3n2)C1 [(1R,3R)-3-((3-bromo-1-(8-fluoroquinolin-6-yl)-1H-pyrazolo[3,4-d]pyrimidin-6-yl)amino)-N-((3R,4R)-3-fluoropiperidin-4-yl)cyclo-pentane-1-carboxamide] | 6.70 to 7.60 |
| CNC(=O)[C@]1(C)CC[C@@H](Nc2ncc3c(Br)nn(-c4ccc(-c5nnc(C(C)CO)o5)cc4)c3n2)C1 (stereo partly drawn) [(1R,3R)-3-[[3-bromo-1-[4-[5-(2-hydroxy-1-methyl-ethyl)-1,3,4-oxadiazol-2-yl]phenyl]pyrazolo[3,4-d]pyrimidin-6-yl]amino]-N,1-dimethyl-cyclopentane-carboxamide] | > 7.60 |
